{"source": "paper PMC10115881", "about": "“Disrupting the α-synuclein-ESCRT interaction with a peptide inhibitor mitigates neurodegeneration in preclinical models of Parkinson’s disease” (Nature Communications, 2023)", "key": {"[1]": {"test_system": "endolysosomal flux in SNCA triplication fibroblasts", "assay": "Endolysosomal flux assay, confocal microscopy, SNCA triplication fibroblasts", "format": "cell-based, human", "procedure": "Flux via the endolysosomal pathway was measured with the Lysosome Intracellular Activity Assay Kit which was purchased from Abcam (ab234622) and used according to the manufacturer’s instructions. The kit provides a proprietary lysosome-specific self-quenched substrate which has low background fluorescence, high signal-to-background ratio, and is pH insensitive. In the assay, the substrate is taken up by cells and acts as endocytic cargo which is degraded within an endolysosomal vesicle. Following degradation, the fluorescence signal recovered from the substrate is proportional to the intracellular lysosomal activity. The activity can be measured by fluorescence microscopy or FACS. The assay was performed with HEK293T cells or SNCA triplication fibroblasts (obtained from NINDS Human Genetics Resource Center DNA and Cell Line Repository; NINDS Repository sample number ND27760). Cells were maintained in DMEM supplemented with 10% FBS and 1% pen/strep/glutamine. Cell medium was replaced with fresh medium containing DMSO, Leupeptin, or Bafilomycin A1 and incubated for 1 h at 37 °C with 5% CO2. Self-quenched substrate was added into each condition and incubated for 1 h (HEK293T cells) or overnight (SNCA triplication fibroblasts) at 37 °C with 5% CO2. […] For HEK293T cells, cells were resuspended in PBS containing DMSO or Leupeptin and analyzed by FACS. […]"}, "a-syn-CHMP2B interaction": {"test_system": "a-syn-CHMP2B interaction", "assay": "Proximity ligation assay, endogenous a-syn-CHMP2B in rat cortical neurons", "format": "cell-based", "procedure": "PLA was performed on fixed primary neurons using Duolink® in situ red starter kit mouse/rabbit (Sigma–Aldrich) according to the manufacturer’s instructions. Fixed neurons were permeabilized with 0.1% Triton-X-100 in PBS for 10 min, washed three times with PBS, and incubated with blocking solution for 30 min at 37 °C in a humidity chamber. Primary antibodies (mouse anti-a-syn (clone 42) (BD Biosciences, catalog #610787, 1:500) and rabbit anti-CHMP2B (Abcam, catalog #ab33174, 1:50)) were diluted using antibody diluent. After blocking, neurons were incubated with primary antibodies at room temperature for 1 h in a humidity chamber. Coverslips were washed with wash buffer A two times for 5 min and then incubated with PLA probe solution (anti-mouse minus and anti-rabbit plus) for 1 h at 37 °C in a humidity chamber. Coverslips were washed with wash buffer A two times for 5 min. For the ligation step, 5× ligation buffer was diluted 1:5 in high purity water and ligase was added to the 1× ligation buffer at 1:40 dilution. After the wash, coverslips were incubated in the diluted ligase for 30 min at 37 °C in a humidity chamber. Post-ligation, coverslips were washed with wash buffer A two times for 5 min. For the amplification step, 5× amplification buffer was diluted 1:5 in high purity water and polymerase was added to the 1× amplification buffer at 1:80 dilution. […]"}, "full-length YFP": {"test_system": "full-length YFP", "assay": "YFP fluorescence in rat cortical neurons, full length YFP", "format": "cell-based", "source_text": "Adeno-associated virus (AAV) of a 1/2 serotype was used to express A53T a-syn (AAV-A53T), a truncated version of A53T a-syn lacking amino acids 103–140 (Δa-syn(103–140)), and WT a-syn, fused to either the N-terminal half of YFP (AAV-V1S) or the C-terminal half of YFP (AAV-SV2), all under the control of the CAG promoter, a hybrid of the chicken beta-actin (CBA) promoter fused with the cytomegalovirus (CMV) immediate early enhancer sequence (GeneDetect Ltd.)[46].\nPregnant rats (E17) of the Sprague-Dawley strain were purchased from Envigo. Embryos were surgically removed from the mothers and cortices dissected in Hanks Balanced salt solution (Gibco). […]\nConfocal images of primary cortical neurons, iPSC-derived dopaminergic neurons, and LAMP1 staining within the SN were processed using Imaris software (Oxford instruments). […] Mean pixel intensity per GFP^+ cell (for experiments using GFP-tagged peptides) or RFP^+ cell (for experiments using RFP-tagged peptides) was calculated for a-syn or LAMP1 signal using the software’s surfaces module. The software’s surfaces module was used to identify GFP^+/NeuN^+ cells, and number of pS129 a-syn^+ puncta per GFP^+/NeuN^+ cortical neuron was counted using the software’s spots module. Mean pixel intensity per RFP^+/NeuN^+ cortical neuron was calculated for Rab7, cathepsin B, or cathepsin D signals using the software’s surfaces module. […]"}}, "data": [{"sequence": "DEEIERQLKALG [PDpep1.3]", "values": [{"measurement": "Effect on endolysosomal flux in fibroblasts", "setting": "[1]", "result": "increased endolysosomal flux"}, {"measurement": "Effect on a-syn-CHMP2B interaction, PLA", "setting": "a-syn-CHMP2B interaction", "result": "reduction of the interaction between endogenous WT a-syn and CHMP2B"}, {"measurement": "Effect on YFP fluorescence, full-length YFP", "setting": "full-length YFP", "result": "had no effect on fluorescence of YFP alone"}]}]}
